Data on 1 molecule can be found in EPA's ToxValDB 9.5 (doi:10.2903/j.efsa.2006.88r).

The conditions of series [1]: acute; oral; unspecified; mortality.
For another series, the system named is Canidae. To be noted: subchronic; oral; Dog Other; histopathology: nonneoplastic.
The subject of the next series is Tagia sp. The settings on record: mortality.
For a further series, the system named is Daphnia magna. To be noted: chronic/long-term; duration: 21 days; reproduction.
A further series concerns Apis mellifera. To be noted: acute; duration: 48 hours; oral; unspecified; mortality.
The subject of the next series is Oryctolagus sp. The settings on record: subchronic; oral; histopathology: nonneoplastic.

Values after ≈ are worked out from the molar mass of the structure shown.

As usually defined, the NOAEL is the highest dose or exposure tested at which no adverse effect was seen. Regarding `CSc1nnc(C(C)(C)C)c(=O)n1N` [Metribuzin], the LD50 in series [1] worked out at 322 mg/kg; in the series on Bird (acute, oral, unspecified, mortality) it was 164 mg/kg; with Apis mellifera, 166 µg/piece. Also, the LC50 in the series with Oncorhynchus mykiss (acute, duration: 96 hours, mortality) was 74.6 µg/mL (≈ 348 µM); in the series with Bird (short-term, oral, feed, mortality), above 359 mg/kg-day; in the series with Tagia sp. (acute, duration: 14 days), 427 mg/kg. Besides, the NOEC in the series with Oncorhynchus mykiss (chronic/long-term, duration: 95 days, growth) was determined as 4.4 mg/L; with Bird (reproductive), 28.3 mg/kg-day; in the series on Tagia sp. (chronic/long-term, duration: 8 weeks), 5250 g/ha; with Daphnia magna it was 0.32 mg/L. Besides, the no observed adverse effect level (NOAEL) with Canidae was 2 mg/kg-day; in the series on Rattus norvegicus (acute, clinical signs), above 2 mg/kg-day; with Rattus norvegicus (chronic, duration: 2 years), 1.3 mg/kg-day; with Rattus norvegicus (reproduction developmental, body weight), 2.2 mg/kg-day; in the series on Rattus norvegicus (subchronic, oral, histopathology: nonneoplastic), 2 mg/kg-day; with Oryctolagus sp., 2 mg/kg-day.
